Source: PubChem BioAssay (NCI)
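Step 1: Grow cells in 96-well plates. Step 2: Expose to compound for 48 hours at 5 concentrations. Step 3: Interpolate endpoints linearly; if unreached, use highest concentration. Here, GI50 denotes the concentration required for 50% inhibition of growth. At the TGI there is no net growth.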

Tests used:
Assay in all cases: NCI-60 cell line screen, 48 h
DMS 273 small cell lung = tested on: DMS 273 small cell lung
M19-MEL melanoma = tested on: M19-MEL melanoma
HOP-18 NSCLC = tested on: HOP-18 NSCLC
UO-31 renal = tested on: UO-31 renal
ACHN renal = tested on: ACHN renal
A549 NSCLC = tested on: A549 NSCLC
T-47D breast = tested on: T-47D breast
MDA-N = tested on: MDA-N
NCI/ADR-RES ovarian = tested on: NCI/ADR-RES ovarian
HS 578T breast = tested on: HS 578T breast
DLD-1 colon = tested on: DLD-1 colon
XF 498 CNS = tested on: XF 498 CNS
BT-549 breast = tested on: BT-549 breast

SMILES | TGI (DMS 273 small cell lung) [µM] | TGI (M19-MEL melanoma) [µM] | TGI (HOP-18 NSCLC) [µM] | TGI (UO-31 renal) [µM] | TGI (ACHN renal) [µM] | TGI (A549 NSCLC) [µM] | TGI (T-47D breast) [µM] | TGI (MDA-N) [µM] | TGI (NCI/ADR-RES ovarian) [µM] | TGI (HS 578T breast) [µM] | TGI (DLD-1 colon) [µM] | TGI (XF 498 CNS) [µM] | TGI (BT-549 breast) [µM] | GI50 (BT-549 breast) [µM] | GI50 (UO-31 renal) [µM] | GI50 (T-47D breast) [µM] | GI50 (NCI/ADR-RES ovarian) [µM] | GI50 (ACHN renal) [µM] | GI50 (A549 NSCLC) [µM] | GI50 (HS 578T breast) [µM]
O=C(O)CC/C(=N\Nc1nsc2ccccc12)c1ccccc1 | 67.3 | > 100 | > 100 | > 100 | > 100 | > 100 | – | – | – | – | – | – | – | – | – | – | – | – | – | –
C[C@]12CC[C@@H]3c4ccc(O)cc4CC[C@H]3[C@@H]1C/C(=C\c1ccncc1)C2=O | – | – | – | > 100 | > 100 | > 100 | > 100 | > 100 | 60.1 | 62.7 | – | – | – | – | – | – | – | – | – | –
COCCOCOc1ccc(OCc2ccccc2)cc1 | > 100 | > 100 | > 100 | > 100 | – | > 100 | – | – | > 100 | – | > 100 | > 100 | – | – | – | – | – | – | – | –
COC(=O)C1C(C(=O)OC)N(Cc2ccccc2)C(=O)N1Cc1ccccc1 (stereo not drawn) | – | – | – | > 100 | > 100 | > 100 | > 100 | > 100 | > 100 | > 100 | – | – | > 100 | – | – | – | – | – | – | –
C=CCN1C(=O)/C(=C/c2ccccc2)N=C1SC1OC(COC(=O)c2ccccc2)C(OC(=O)c2ccccc2)C1OC(=O)c1ccccc1 (stereo not drawn) | – | – | – | – | > 100 | – | – | – | > 100 | – | – | – | > 100 | – | – | – | – | – | – | –
C/C(CCOC1CCCCO1)=C(\C)[Si](C)(C)C (stereo not drawn) | – | > 100 | – | > 100 | > 100 | > 100 | – | – | – | – | > 100 | > 100 | – | – | – | – | – | – | – | –
COc1ccc2[nH]c(O)c(/C=c3/cc4c(c(-c5cc(OC)c(OC)c(OC)c5)n3)=Nc3ccccc3-4)c2c1 | – | – | – | > 100 | > 100 | > 100 | > 100 | – | > 100 | > 100 | – | – | 83.5 | 5.13 | 6.62 | 28.5 | 3.3 | 7.47 | 8.66 | 9.81
C=C(C(=O)C(=O)Oc1ccc(Cl)cc1)C(=O)c1ccc(C)cc1 | > 100 | 35.4 | > 100 | > 100 | > 100 | > 100 | – | – | – | – | 99.3 | > 100 | – | – | – | – | – | – | – | –
CC(C)OP(=O)(OC(C)C)c1c(Nc2ccccc2)n[nH]c1N | – | – | – | > 100 | > 100 | > 100 | > 100 | > 100 | > 100 | > 100 | – | – | – | – | – | – | – | – | – | –
C#CCCCCC#Cc1ccccc1C(=O)OC | > 100 | – | > 100 | > 100 | > 100 | > 100 | – | – | – | – | > 100 | > 100 | – | – | – | – | – | – | – | –
CCOC(=O)c1csc(NC(=O)CCN(CC)CC)n1 | – | – | – | > 100 | > 100 | > 100 | > 100 | > 100 | > 100 | – | – | – | – | – | – | – | – | – | – | –
CC1=C(O)C(=O)[C@@H]2O[C@@H]2C1=O | 62.3 | 28.9 | 30.6 | 54.1 | – | 99 | – | – | 44.9 | – | 21.7 | 23.3 | – | – | – | – | – | – | – | –
